What was measured:
Assay in all cases: relative viability (nuclei count vs DMSO), 5 days (fraction); higher = more cells survive
Wnt-C59 + Tozasertib = compound: CC1=NC=CC(=C1)C2=CC=C(C=C2)CC(=O)NC3=CC=C(C=C3)C4=CN=CC=C4 [Wnt-C59] + Cc1cc(Nc2cc(N3CCN(C)CC3)nc(Sc3ccc(NC(=O)C4CC4)cc3)n2)n[nH]1 [Tozasertib] (partner 0.1 µM)
Procedure, shortened: (§1)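 Relative viability was taken as the ratio of nuclei in treated wells to nuclei in vehicle wells. Lung cancer cell lines in 1536-well plates received compounds by pin tool one day after seeding, either one drug alone or a fixed anchor-drug dose plus five library-drug doses (not always all listed) in √10 steps. Nuclei were counted on 4× images after 5 days of treatment, and values are medians of duplicate plates.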

Lapatinib + Foretinib = compound: CS(=O)(=O)CCNCc1ccc(-c2ccc3ncnc(Nc4ccc(OCc5cccc(F)c5)c(Cl)c4)c3c2)o1 [Lapatinib] + COc1cc2c(Oc3ccc(NC(=O)C4(C(=O)Nc5ccc(F)cc5)CC4)cc3F)ccnc2cc1OCCCN1CCOCC1 [Foretinib] (partner 0.25 µM)
Procedure, shortened: as §1

Wnt-C59 + Dasatinib = compound: CC1=NC=CC(=C1)C2=CC=C(C=C2)CC(=O)NC3=CC=C(C=C3)C4=CN=CC=C4 [Wnt-C59] + Cc1nc(Nc2ncc(C(=O)Nc3c(C)cccc3Cl)s2)cc(N2CCN(CCO)CC2)n1 [Dasatinib] (partner 0.075 µM)
Procedure, shortened: as §1

Lapatinib + Pictilisib = compound: CS(=O)(=O)CCNCc1ccc(-c2ccc3ncnc(Nc4ccc(OCc5cccc(F)c5)c(Cl)c4)c3c2)o1 [Lapatinib] + CS(=O)(=O)N1CCN(Cc2cc3nc(-c4cccc5[nH]ncc45)nc(N4CCOCC4)c3s2)CC1 [Pictilisib] (partner 1 µM)
Procedure, shortened: as §1

| Cell Line | relative viability (Wnt-C59 + Tozasertib; first compound 0.001 µM) | relative viability (Wnt-C59 + Tozasertib; first compound 0.01 µM) | relative viability (Wnt-C59 + Tozasertib; first compound 0.03162 µM) | relative viability (Wnt-C59 + Tozasertib; first compound 0.1 µM) | relative viability (Lapatinib + Foretinib; first compound 0.02 µM) | relative viability (Lapatinib + Foretinib; first compound 0.06325 µM) | relative viability (Lapatinib + Foretinib; first compound 0.2 µM) | relative viability (Lapatinib + Foretinib; first compound 0.6325 µM) | relative viability (Lapatinib + Foretinib; first compound 2 µM) | relative viability (Wnt-C59 + Dasatinib; first compound 0.001 µM) | relative viability (Wnt-C59 + Dasatinib; first compound 0.01 µM) | relative viability (Wnt-C59 + Dasatinib; first compound 0.03162 µM) | relative viability (Wnt-C59 + Dasatinib; first compound 0.1 µM) | relative viability (Lapatinib + Pictilisib; first compound 0.02 µM) | relative viability (Lapatinib + Pictilisib; first compound 0.06325 µM) | relative viability (Lapatinib + Pictilisib; first compound 0.2 µM) | relative viability (Lapatinib + Pictilisib; first compound 0.6325 µM) | relative viability (Lapatinib + Pictilisib; first compound 2 µM) |
| --- | --- | --- | --- | --- | --- | --- | --- | --- | --- | --- | --- | --- | --- | --- | --- | --- | --- | --- |
| NCI-H661 | 0.351 | 0.324 | 0.352 | 0.357 | 0.972 | 0.926 | 0.856 | 0.666 | 0.62 | 0.914 | 0.736 | 0.907 | 0.872 | 0.397 | 0.381 | 0.29 | 0.307 | 0.324 |
| NCI-H1355 | 0.599 | 0.581 | 0.564 | 0.558 | – | 0.795 | 0.94 | 0.93 | 0.657 | 0.725 | 0.533 | 0.711 | 0.617 | – | 0.419 | 0.496 | 0.499 | 0.285 |
| HCC-366 | 0.156 | 0.102 | 0.111 | 0.124 | – | 0.86 | 0.887 | 0.912 | 0.89 | 0.678 | 0.621 | 0.594 | 0.487 | 0.133 | 0.0868 | 0.131 | 0.135 | 0.0768 |
| LK-2 | 0.165 | 0.173 | 0.189 | 0.18 | – | – | 1.39 | 1.42 | 1.07 | 0.379 | 0.372 | 0.268 | 0.292 | – | – | 0.424 | 0.615 | 0.531 |
| COR-L23 | 0.202 | 0.237 | 0.233 | 0.19 | 0.949 | 0.872 | 0.918 | 0.971 | 0.891 | 0.483 | 0.571 | 0.641 | 0.413 | 0.681 | 0.583 | 0.984 | 0.92 | 0.733 |
| PC-14 | 0.663 | 0.658 | 0.569 | 0.619 | 0.864 | 0.913 | 1.03 | 0.873 | 0.78 | 0.309 | 0.257 | 0.242 | 0.241 | 0.543 | 0.641 | 0.768 | 0.804 | 0.121 |
| NCI-H2087 | 0.274 | 0.235 | 0.255 | 0.291 | – | 0.942 | 1.17 | 0.994 | 0.962 | 0.733 | 0.868 | 0.943 | 0.806 | 0.472 | 0.737 | 1.03 | 0.963 | 0.802 |
| HCC-15 | 0.407 | 0.389 | 0.322 | 0.44 | – | 0.812 | 1.02 | 0.949 | 0.971 | 0.667 | 0.634 | 0.644 | 0.574 | – | 0.734 | 0.767 | 0.725 | 0.638 |
| NCI-H2228 | 0.31 | 0.322 | 0.264 | 0.23 | 0.837 | 0.714 | 0.96 | 0.826 | 0.701 | 0.503 | 0.429 | 0.615 | 0.524 | 0.51 | 0.321 | 0.567 | 0.403 | 0.259 |

— the supplement of paper PMC10307832
